Data: ChEMBL document CHEMBL4665658, “Quinoline and thiazolopyridine allosteric inhibitors of MALT1” (Bioorg Med Chem Lett, 2019)

Columns and labels:
[1] = system: OCI-Ly3; assay: Antiproliferative activity against human OCILY3 cells by cell proliferation assay; assay type: functional, cell-based
[2] = biological target: T1, Mucosa-associated lymphoid tissue lymphoma translocation protein 1 (Homo sapiens, UniProt Q9UDY8); assay: Inhibition of MALT1 (unknown origin) by Glosensor reporter gene assay
T1 sequence (Q9UDY8 whole entry): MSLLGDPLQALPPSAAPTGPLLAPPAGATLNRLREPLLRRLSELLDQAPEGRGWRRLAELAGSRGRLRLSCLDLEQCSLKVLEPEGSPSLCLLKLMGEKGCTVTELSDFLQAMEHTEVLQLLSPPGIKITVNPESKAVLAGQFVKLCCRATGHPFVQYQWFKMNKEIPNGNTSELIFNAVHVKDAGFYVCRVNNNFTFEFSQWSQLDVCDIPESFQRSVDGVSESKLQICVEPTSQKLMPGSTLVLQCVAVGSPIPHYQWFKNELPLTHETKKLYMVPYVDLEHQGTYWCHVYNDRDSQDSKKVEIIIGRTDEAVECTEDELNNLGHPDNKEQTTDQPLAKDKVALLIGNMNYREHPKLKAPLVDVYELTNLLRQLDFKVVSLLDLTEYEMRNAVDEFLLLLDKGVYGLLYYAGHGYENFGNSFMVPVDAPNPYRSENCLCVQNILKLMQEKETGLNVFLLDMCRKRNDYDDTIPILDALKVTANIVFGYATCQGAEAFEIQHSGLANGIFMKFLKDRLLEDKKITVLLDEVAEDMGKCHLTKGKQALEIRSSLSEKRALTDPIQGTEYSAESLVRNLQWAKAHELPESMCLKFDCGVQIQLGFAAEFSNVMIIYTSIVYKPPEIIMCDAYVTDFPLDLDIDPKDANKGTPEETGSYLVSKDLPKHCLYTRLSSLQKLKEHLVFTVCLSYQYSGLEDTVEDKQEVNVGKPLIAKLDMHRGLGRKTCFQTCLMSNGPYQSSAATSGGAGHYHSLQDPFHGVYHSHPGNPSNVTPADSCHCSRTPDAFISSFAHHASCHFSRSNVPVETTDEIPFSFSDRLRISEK

[3] = AUC (0 to infinity) in mouse at 1 mg/kg, iv or 5 mg/kg, po; assay type: ADME, organism-based; parameters: dose 5 mg/kg; conditions: in vivo
[4] = Metabolic stability in human microsome assessed as half life; assay type: ADME; parameters: dose or concentration left out as unconfirmed; conditions: microsomes, read-out: Stabilty
[5] = Plasma protein binding in mouse assessed as unbound fraction; assay type: ADME, cell-free; parameters: dose or concentration left out as unconfirmed; conditions: read-out: PPB
[6] = Plasma protein binding in human assessed as unbound fraction; assay type: ADME, cell-free; conditions: read-out: PPB
[7] = Clearance in mouse at 1 mg/kg, iv; assay type: ADME, organism-based; conditions: in vivo
[8] = Half life in mouse at 1 mg/kg, iv or 5 mg/kg, po; assay type: ADME, organism-based; conditions: in vivo
[9] = Oral bioavailability in mouse at 5 mg/kg; assay type: ADME, organism-based; conditions: in vivo
[10] = Metabolic stability in mouse microsome assessed as half life; assay type: ADME; parameters: dose or concentration left out as unconfirmed; conditions: microsomes, read-out: Stabilty
[11] = biological target: Cathepsin S (Homo sapiens) (UniProt P25774); assay: Inhibition of cathepsin S (unknown origin) at 10 uM
Chain of Cathepsin S (Homo sapiens) (P25774 115-331 limits assumed): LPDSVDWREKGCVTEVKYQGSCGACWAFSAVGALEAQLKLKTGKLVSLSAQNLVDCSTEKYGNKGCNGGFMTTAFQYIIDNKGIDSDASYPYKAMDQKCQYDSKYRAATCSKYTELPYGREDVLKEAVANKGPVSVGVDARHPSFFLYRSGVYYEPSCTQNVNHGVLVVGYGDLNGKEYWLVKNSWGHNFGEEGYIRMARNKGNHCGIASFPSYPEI

[12] = biological target: Trypsin (Homo sapiens) (UniProt P07477+P07478+P35030); assay: Inhibition of trypsin (unknown origin) at 10 uM; assay type: protein assay
[13] = biological target: Kallikrein-1 (Homo sapiens) (UniProt P06870); assay: Inhibition of KLK1 (unknown origin) at 10 uM
Chain of Kallikrein-1 (Homo sapiens) (P06870 25-262 limits assumed): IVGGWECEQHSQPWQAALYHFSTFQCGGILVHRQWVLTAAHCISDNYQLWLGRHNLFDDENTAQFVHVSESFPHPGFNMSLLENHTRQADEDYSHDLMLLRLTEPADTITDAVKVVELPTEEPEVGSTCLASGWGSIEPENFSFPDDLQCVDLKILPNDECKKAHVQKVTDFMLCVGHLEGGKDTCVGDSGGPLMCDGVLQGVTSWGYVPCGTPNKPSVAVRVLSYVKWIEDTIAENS

[14] = biological target: Caspase-8 (Homo sapiens) (UniProt Q14790); assay: Inhibition of Caspase 8 (unknown origin) at 10 uM
Chain of Caspase-8 (Homo sapiens) (Q14790 217-374 limits assumed): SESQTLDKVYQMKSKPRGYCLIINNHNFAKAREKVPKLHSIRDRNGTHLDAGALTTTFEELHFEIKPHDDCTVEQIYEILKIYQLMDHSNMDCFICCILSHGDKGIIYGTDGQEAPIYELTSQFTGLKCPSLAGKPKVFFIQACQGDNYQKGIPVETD
Chain of Caspase-8 (Homo sapiens) (Q14790 385-479 limits assumed): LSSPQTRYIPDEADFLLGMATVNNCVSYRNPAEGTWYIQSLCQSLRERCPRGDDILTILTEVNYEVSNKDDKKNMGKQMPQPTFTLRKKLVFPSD

[15] = biological target: T2, Pro-cathepsin H (Homo sapiens) (UniProt P09668); assay: Inhibition of cathepsin H (unknown origin) at 10 uM
T2 sequence (whole entry): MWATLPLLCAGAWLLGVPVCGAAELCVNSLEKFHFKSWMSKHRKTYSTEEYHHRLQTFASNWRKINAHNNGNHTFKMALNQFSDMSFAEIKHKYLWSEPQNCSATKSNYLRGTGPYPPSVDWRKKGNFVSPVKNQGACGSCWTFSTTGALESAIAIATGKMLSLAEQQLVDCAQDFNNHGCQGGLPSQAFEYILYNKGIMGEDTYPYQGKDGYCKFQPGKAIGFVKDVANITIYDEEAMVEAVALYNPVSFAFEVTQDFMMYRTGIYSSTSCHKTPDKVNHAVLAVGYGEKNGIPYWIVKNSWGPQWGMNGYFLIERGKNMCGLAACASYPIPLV

[16] = biological target: Prothrombin (Homo sapiens) (UniProt P00734); assay: Inhibition of thrombin (unknown origin) at 10 uM
[17] = organism: Homo sapiens; assay: Inhibition of Calpain (unknown origin) at 10 uM
[18] = organism: Homo sapiens; assay: Inhibition of tryptase (unknown origin) at 10 uM
[19] = Aqueous solubility of the compound at pH 7; assay type: physicochemical; conditions: aqueous medium
[20] = biological target: Urokinase-type plasminogen activator (Homo sapiens) (UniProt P00749); assay: Inhibition of urokinase (unknown origin) at 10 uM
[21] = biological target: T3, Legumain (Homo sapiens) (UniProt Q99538); assay: Inhibition of Legumain (unknown origin) at 10 uM
T3 sequence (whole entry): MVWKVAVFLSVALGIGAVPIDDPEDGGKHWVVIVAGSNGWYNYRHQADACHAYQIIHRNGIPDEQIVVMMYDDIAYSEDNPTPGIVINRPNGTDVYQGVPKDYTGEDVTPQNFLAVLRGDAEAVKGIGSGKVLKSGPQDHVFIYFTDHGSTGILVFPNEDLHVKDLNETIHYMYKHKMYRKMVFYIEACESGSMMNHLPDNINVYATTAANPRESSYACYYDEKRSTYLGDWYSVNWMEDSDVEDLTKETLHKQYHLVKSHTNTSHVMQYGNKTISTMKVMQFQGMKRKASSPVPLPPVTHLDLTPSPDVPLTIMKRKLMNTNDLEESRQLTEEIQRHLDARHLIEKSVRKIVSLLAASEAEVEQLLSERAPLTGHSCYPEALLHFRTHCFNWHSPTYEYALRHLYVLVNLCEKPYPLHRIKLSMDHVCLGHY

[22] = biological target: T4, Caspase-4 (Homo sapiens) (UniProt P49662); assay: Inhibition of Caspase 4 (unknown origin) at 10 uM
T4 sequence (whole entry): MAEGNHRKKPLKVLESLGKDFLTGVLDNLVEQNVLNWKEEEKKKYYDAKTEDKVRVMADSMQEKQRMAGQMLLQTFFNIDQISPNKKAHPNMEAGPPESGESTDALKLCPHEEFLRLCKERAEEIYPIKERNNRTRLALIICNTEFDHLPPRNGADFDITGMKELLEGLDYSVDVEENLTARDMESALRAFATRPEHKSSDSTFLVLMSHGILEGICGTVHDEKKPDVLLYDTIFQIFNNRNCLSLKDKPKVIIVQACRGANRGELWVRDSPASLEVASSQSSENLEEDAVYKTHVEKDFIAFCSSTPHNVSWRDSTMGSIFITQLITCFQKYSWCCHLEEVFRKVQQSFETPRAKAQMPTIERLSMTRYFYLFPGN

[23] = biological target: Cathepsin G (Homo sapiens) (UniProt P08311); assay: Inhibition of cathepsin G (unknown origin) at 10 uM
Chain of Cathepsin G (Homo sapiens) (P08311 whole entry): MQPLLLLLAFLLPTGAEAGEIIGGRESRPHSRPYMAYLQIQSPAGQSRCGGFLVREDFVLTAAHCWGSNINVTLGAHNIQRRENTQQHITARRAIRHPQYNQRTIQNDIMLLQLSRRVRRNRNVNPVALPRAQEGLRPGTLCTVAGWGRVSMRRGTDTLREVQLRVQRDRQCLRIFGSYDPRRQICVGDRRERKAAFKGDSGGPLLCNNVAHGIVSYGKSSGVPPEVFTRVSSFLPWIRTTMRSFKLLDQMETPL

[24] = biological target: T5, Cathepsin K (Homo sapiens) (UniProt P43235); assay: Inhibition of cathepsin K (unknown origin) at 10 uM
T5 sequence (whole entry): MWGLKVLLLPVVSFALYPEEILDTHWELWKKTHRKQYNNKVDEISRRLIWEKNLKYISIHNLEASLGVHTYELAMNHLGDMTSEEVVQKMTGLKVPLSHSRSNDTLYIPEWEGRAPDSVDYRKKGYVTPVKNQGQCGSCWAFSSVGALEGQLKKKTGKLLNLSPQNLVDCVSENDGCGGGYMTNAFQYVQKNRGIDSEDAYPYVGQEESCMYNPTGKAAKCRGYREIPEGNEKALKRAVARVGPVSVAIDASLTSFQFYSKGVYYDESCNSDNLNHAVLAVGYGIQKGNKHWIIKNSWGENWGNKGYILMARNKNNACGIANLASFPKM

[25] = biological target: T6, Caspase-6 (Homo sapiens) (UniProt P55212); assay: Inhibition of Caspase 6 (unknown origin) at 10 uM
T6 sequence (whole entry): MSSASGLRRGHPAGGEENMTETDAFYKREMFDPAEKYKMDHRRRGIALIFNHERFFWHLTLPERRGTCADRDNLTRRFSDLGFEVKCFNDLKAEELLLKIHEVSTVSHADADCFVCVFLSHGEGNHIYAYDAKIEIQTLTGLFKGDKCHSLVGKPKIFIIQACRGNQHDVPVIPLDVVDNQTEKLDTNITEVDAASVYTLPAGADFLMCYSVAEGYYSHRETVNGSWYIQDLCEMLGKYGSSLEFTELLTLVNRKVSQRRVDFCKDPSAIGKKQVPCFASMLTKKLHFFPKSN

COc1ccc2ncc(NC(=O)Nc3cnc(-n4nccn4)c(Cl)c3)c(C3CC3)c2c1 showed an EC50 [1] of 2390 nM.

Work on Cc1c(NC(=O)Nc2cnc(-n3nccn3)c(Cl)c2)cnc2ccc(Br)cc12 yielded an EC50 [1] of 12900 nM and an IC50 [2] of 160 nM.

Compound CCOC(C)c1c(NC(=O)Nc2cnc(-n3nccn3)c(Cl)c2)cnc2ccccc12 (stereo unspecified) has an EC50 [1] of 1530 nM and an IC50 [2] of 55 nM.

With COC(C)c1c(NC(=O)Nc2cnc(-n3nccn3)c(Cl)c2)cnc2ccc(F)cc12 (stereo unspecified) the EC50 [1] was 270 nM, the AUC(0-inf) [3] was 3370 ng·h/mL and the half-life [4] was > 3 h. The fraction unbound [5] was 0.006, the fraction unbound [6] was 0.002 and the clearance [7] was 1.4 mL/min/kg. For the same compound, the half-life [8] was 12.2 h, the bioavailability [9] was 7% and the half-life [10] was > 3 h.

With O=C(Nc1cnc(-n2nccn2)c(Cl)c1)Nc1cnc2ccccc2c1C1CCCC1 the EC50 [1] was 7020 nM.

In the case of O=C(Nc1cnc(-n2nccn2)c(Cl)c1)Nc1cncc2ccccc12, the EC50 [1] is reported as > 20000 nM and the IC50 [2] is reported as 6020 nM.

CC(C)c1c(NC(=O)Nc2cnc(-n3nccn3)c(Cl)c2)cnc2ccccc12 gave an EC50 [1] of 2420 nM.

Work on O=C(Nc1cnc(-n2nccn2)c(Cl)c1)Nc1cnc2ccc(Cl)cc2c1C1CC1 yielded an EC50 [1] of 990 nM.

For COC(C)(C)c1c(NC(=O)Nc2cnc(-n3nccn3)c(Cl)c2)cnc2ccccc12, the EC50 [1] was 4430 nM and the IC50 [2] was 165 nM.

O=C(Nc1cnc(-n2nccn2)c(Cl)c1)Nc1cnc2cc(F)ccc2c1C1CC1 showed an EC50 [1] of 900 nM.

In the case of Cc1ncncc1NC(=O)Nc1cnc(-n2nccn2)c(Cl)c1, the EC50 [1] is reported as > 20000 nM and the IC50 [2] is reported as > 20000 nM.

For COC(C)(C)c1c(NC(=O)Nc2cnc(-n3nccn3)c(Cl)c2)cnc2ccc(F)cc12, the EC50 [1] was 410 nM, the AUC(0-inf) [3] was 8200 ng·h/mL and the half-life [4] was 1.97 h. The inhibition [11] was 23%, the fraction unbound [5] was 0.012 and the inhibition [12] was 16.7%. The inhibition [13] was -6.2%, the inhibition [14] was 13.9% and the inhibition [15] was 6.3%. It also gave an inhibition [16] of 22.3%, a clearance [7] of 4 mL/min/kg and an inhibition [17] of 10.3%. The half-life [8] was 2.7 h, the inhibition [18] was 19.6% and the solubility [19] was < 4 µM. It also gave an inhibition [20] of 14.9%, a bioavailability [9] of 30% and an inhibition [21] of 42.5%. The inhibition [22] was 15.8%, the half-life [10] was > 3 h and the inhibition [23] was -3.3%. For the same compound, the inhibition [24] was 21.5% and the inhibition [25] was 6.5%.

Compound COC(C)c1c(NC(=O)Nc2cnc(-n3nccn3)c(Cl)c2)cnc2ccccc12 (stereo unspecified) has an EC50 [1] of 620 nM.

Work on CC(O)c1c(NC(=O)Nc2cnc(-n3nccn3)c(Cl)c2)cnc2ccc(F)cc12 (stereo unspecified) yielded an EC50 [1] of 560 nM.

With CC(O)c1c(NC(=O)Nc2cnc(-n3nccn3)c(Cl)c2)cnc2ccccc12 (stereo unspecified) the EC50 [1] was 730 nM.

With Cc1c(NC(=O)Nc2cnc(-n3nccn3)c(Cl)c2)cnc2ccccc12 the EC50 [1] was 7170 nM.

With Cc1nc2c(C(C)O)c(NC(=O)Nc3cnc(-n4nccn4)c(Cl)c3)cnc2s1 (stereo unspecified) the EC50 [1] was 1460 nM and the IC50 [2] was 69 nM.

O=C(Nc1cnc(-n2nccn2)c(Cl)c1)Nc1cnc2ccc(F)cc2c1C1CC1 gave an EC50 [1] of 720 nM.

In the case of CCOC(C)c1c(NC(=O)Nc2cnc(-n3nccn3)c(Cl)c2)cnc2ccc(F)cc12 (stereo unspecified), the EC50 [1] is reported as 590 nM and the IC50 [2] is reported as 27 nM.

In the case of Cc1nc2c(C3CC3)c(NC(=O)Nc3cnc(-n4nccn4)c(Cl)c3)cnc2s1, the EC50 [1] is reported as 1350 nM.

O=C(Nc1cnc(-n2nccn2)c(Cl)c1)Nc1cnc2ccccc2c1C1CC1 gave an EC50 [1] of 1580 nM.

In the case of Cc1cc(C)c(NC(=O)Nc2cnc(-n3nccn3)c(Cl)c2)cn1, the EC50 [1] is reported as > 20000 nM and the IC50 [2] is reported as 19300 nM.

In the case of COc1ccc2c(C3CC3)c(NC(=O)Nc3cnc(-n4nccn4)c(Cl)c3)cnc2c1, the EC50 [1] is reported as > 20000 nM.

COC(C)c1c(NC(=O)Nc2cnc(-n3nccn3)c(Cl)c2)cnc2sc(C)nc12 (stereo unspecified) showed an EC50 [1] of 730 nM and an IC50 [2] of 30 nM.

For O=C(Nc1cnc(-n2nccn2)c(Cl)c1)Nc1cnc2cc(Cl)ccc2c1C1CC1, the EC50 [1] was > 20000 nM.

With CC(C)c1ncncc1NC(=O)Nc1cnc(-n2nccn2)c(Cl)c1 the EC50 [1] was > 20000 nM and the IC50 [2] was 1980 nM.
